Source: US4202891A, “15-Oxygenated sterol compounds and the use of such compounds to inhibit the biosynthesis of sterols” (priority 1977, dated 1980)
Like-named read-outs stand apart in the source and are kept apart here. Each block holds one compound with its values, some of them ahead of it.

Legend:
serum cholesterol = test: Effect on serum cholesterol levels in rats, daily subcutaneous injection (Examples 41, 42); assay type: in vivo, rat (male, Sprague-Dawley); details: for Serum Cholesterol (Mean ± S.E.M.): 5 mg s.c. once a day in triolein; for % Reduction of serum cholesterol (Mean ± S.E.M.): from initial levels in same rats
Description: Male rats of the Sprague-Dawley strain were fed Purina rat chow ad libidum. The rats were maintained on a light (7 A.M.-6 P.M.) -dark (6 P.M.-7 A.M.) cycle throughout the study and for a period of at least 4 days prior to the initiation of the study.
(§1) 3β-Hexadecanoyloxy-5α-cholest-8(14)-en-15-one (5 mg; dissolved in 0.25 ml of triolein), hereafter referred to as the "palmitate ester", or 3β-hemisuccinoyloxy-5α-cholest-8(14)-en-15-one (5 mg; suspended in 0.25 ml of triolein through the use of a tight-fitting all-glass homogenizer), hereafter referred to as the "hemisuccinate ester", were administered subcutaneously once a day at about 12 P.M. to each of eight and six rats, respectively. Control animals (8) received daily injections of triolein (0.25 ml).
Blood samples were taken from the rats periodically and the serum cholesterol concentrations measured, in duplicate, by the method of Abell et al., J. Biol. Chem., Vol. 195, pp. 357-366 ([…]).
Following generally the procedure described in Example 41, 3β-Ethoxy-14α-ethyl-5α-cholest-7-en-15-one (5 mg) in triolein (0.25 ml) was administered subcutaneously once a day to each of eight rats. Control animals (8) received daily injections of triolein (0.25 ml).
Similarly, 5α-cholest-8(14)-en-3β-ol-15-one (2mg) in (0.2 ml) olive oil or 5.0 mg in 0.5 ml of olive oil) was administered subcutaneously once a day to each of a group of rats. The 2 mg dose was administered to 12 rats, while a like number of rats received daily injections of 0.2 ml olive oil. 5 mg doses were administered to each of 6 rats, while 6 control animals received daily injections of 0.5 ml olive oil. The rats used in this study initially weighed between 110 and 190 grams.

[1] = assay type: in vivo, rat (male, Sprague-Dawley)
Description: as §1
The average percentage weight gain over the total experimental period in the palmitate, hemisuccinate, and triolein groups were (mean±S.E.M.) 40.5±4.6, 40.7±1.6, and 43.6±3.3, respectively.

liver = assay type: in vivo, rat (male, Sprague-Dawley); details: 5 mg s.c. once a day
Description: as §1
The mean values of the liver weights of the triolein-treated rats (9.6 g±0.08, S.E.M.). S.E. differed from those of the palmitate ester-treated rats (11.4 g±0.5, S.E.M.). Similarly, the mean value of the liver weights, when expressed as a percentage of the total body weight, of the triolein-treated rats (4.09%±0.08, S.E.M.) differed from the mean value for the palmitate ester-treated rats (4.53%±0.09, S.E.M.).

[2] = test system: sterol biosynthesis in L cells; test: Inhibition of sterol synthesis from [1-14C]acetate in L cell cultures; assay type: cell-based; details: Mus musculus; L cell cultures; read-out: Concentrations Required for 50% Inhibition of Sterol Synthesis
Description: The effect of various 15-oxygenated sterols on sterol biosynthesis in L cells and in primary cultures of mouse liver cells was tested essentially under conditions described in detail previously [A. A. Kandutsch and H. W. Chen, J. Biol. Chem., Vol. 248, pp. 8408-8417 (1973) and A. A. Kandutsch and H. W. Chen, J. Biol. Chem., Vol. 249, pp. 6057-6061 (1974`)].
(§2) The primary liver cell cultures were prepared from 16-day-old (C57BL/6J fetuses and grown in chemically defined medium (serum-free) as described in the above cited publications. The L cells, a subline of NCTC clone 929 mouse fibroblasts, were grown in chemically defined medium (serum-free) as described in the publications. These L cells are transformed fibroblasts which are regarded as malignant since they will grow as tumors if injected into the mouse strain from which they were initially obtained.
(§3) The preparation of steroid-containing media, procedures for assays of the conversion of [1-^14 C]acetate into digitonin-precipitable sterols, fatty acids, and CO2 and methods for the measurement of DNA, protein, and HMG-CoA reductase were as described in the published articles. L cell cultures were preincubated with the 15-oxygenated sterols and their derivatives for 4 hours, then [1-^14 C]acetate was added at a concentration of 4 μmoles per ml (4 μCi per ml); or the L cell cultures were incubated for 5 hours with the 15-oxygenated sterols before they were harvested for determination of microsomal HMG-CoA reductase activity.
The test compounds were tested over a range of at least 4 concentrations and the assay was repeated until the concentration of test compound required to produce 50% inhibition was located on the steeply declining portion of an activity vs. concentration plot. To diminish any possible effects of generalized differences in cellular metabolism, the rates of sterol synthesis from [1-^14 C]acetate were calculated as the ratio of [^14 C]sterols to [^14 C]fatty acids as described in the two cited articles by Kandutsch and Chen.

HMG-CoA reductase = test: Reduction of the activity of HMG-CoA reductase in L cell cultures; assay type: cell-based, mouse; details: read-out: Concentrations Required for 50% Reduction of the Activity of HMG-CoA Reductase
Description: as §2, §3
A number of the 15-oxygenated sterols have also been tested with respect to their effects on the activity and/or levels of the enzyme HMG-CoA reductase (3-hydroxy-3-methylglutaryl coenzyme A reductase) in the L cells and in the liver cells. As noted previously, this enzyme catalyzes the reduction of 3-hydroxy-3-methylglutaryl coenzyme A to yield mevalonic acid, an essential intermediate in the biosynthesis of sterols and of a number of other essential compounds in cells.
Using the technique described by Kandutsch and Chen in the article cited in the previous example, the concentrations of various 15-oxygenated sterols required to reduce the levels of activity of HMG-CoA reductase by 50% was determined in the cells of the L cells in culture and of the primary cultures of liver cells.

[3] = test system: sterol biosynthesis in L cells; details: cited from earlier work; for inhibitory action on the synthesis of sterols (in words): L cells in culture
[4] = test system: sterol biosynthesis in primary cultures of mouse liver cells; details: cited from earlier work; for inhibitory action on the synthesis of sterols (in words): primary cultures of mouse liver cells
plasma cholesterol = details: cited from earlier work

average percentage weight gain (mean±S.E.M.) ([1]; 5 mg s.c. once a day, total experimental period): 40.7±1.6%
differences in growth versus vehicle-treated rats (in words) ([1]; daily s.c.): no significant differences in the growth
difference of liver weights from triolein-treated rats (in words) (liver): no significant difference
liver weight (mean, S.E.M.) (liver): 10.6 g
IC50 [2]: 3200 nM
IC50 (HMG-CoA reductase): 3000 nM
Compound: CC(C)CCC[C@@H](C)[C@H]1CC(=O)C2=C3CC[C@H]4C[C@@H](OC(=O)CCC(=O)O)CC[C@]4(C)[C@H]3CC[C@@]21C [3β-hemisuccinoyloxy-5α-cholest-8(14)-en-15-one]
Serum Cholesterol (Mean ± S.E.M.) (serum cholesterol; day 0 (initial)): 89.1 ± 2.6 mg per 100 ml
Serum Cholesterol (Mean ± S.E.M.) (serum cholesterol; day 3): 78.6 ± 2.4 mg per 100 ml
Serum Cholesterol (Mean ± S.E.M.) (serum cholesterol; day 6): 72.5 ± 1.9 mg per 100 ml
Serum Cholesterol (Mean ± S.E.M.) (serum cholesterol; day 9): 72.3 ± 1.6 mg per 100 ml
Serum Cholesterol (Mean ± S.E.M.) (serum cholesterol; day 12): 58.8 ± 2.8 mg per 100 ml
decrease in serum cholesterol levels (in words) (serum cholesterol; 5 mg s.c. once a day, after 3, 6, 9, 12 days vs same rats before, after 12 days vs triolein): significant decreases in serum cholesterol levels
% Reduction of serum cholesterol (Mean ± S.E.M.) (serum cholesterol; 5 mg s.c. once a day, day 3): 13.5 ± 4.4%
% Reduction of serum cholesterol (Mean ± S.E.M.) (serum cholesterol; 5 mg s.c. once a day, day 6): 18.1 ± 4.1%
% Reduction of serum cholesterol (Mean ± S.E.M.) (serum cholesterol; 5 mg s.c. once a day, day 9): 18.4 ± 3.5%
% Reduction of serum cholesterol (Mean ± S.E.M.) (serum cholesterol; 5 mg s.c. once a day, day 12): 33.9 ± 2.9%
liver weight as percentage of total body weight (mean, S.E.M.) (liver): 4.36%

Compound: CC(C)CCC[C@@H](C)[C@H]1CC[C@H]2[C@@H]3C(=O)C=C4C[C@@H](O)CC[C@]4(C)[C@H]3CC[C@]12C [7-ketocholesterol]
inhibitory action on the synthesis of sterols (in words) [3]: strong inhibitory action
inhibitory action on the synthesis of sterols (in words) [4]: strong inhibitory action
plasma cholesterol-lowering effect in mice (in words) (plasma cholesterol): no significant plasma cholesterol-lowering effect in mice

Compound: C[C@H](CCCC(C)(C)O)[C@H]1CC[C@H]2[C@@H]3CC=C4C[C@@H](O)CC[C@]4(C)[C@H]3CC[C@]12C [Cholest-5-en-3β,25-diol]
IC50 ([3]; L cell cultures, as reported by Kandutsch and Chen, read-out: Concentrations Required for 50% Inhibition of Sterol Synthesis): 70 nM
inhibitory action on the synthesis of sterols (in words) [3]: strong inhibitory action
IC50 ([4]; liver cells, read-out: lowest previously reported concentration for 50% inhibition of sterol synthesis): 1000 nM
IC50 ([4]; primary cultures of liver cells, as reported by Kandutsch and Chen, read-out: Concentrations Required for 50% Inhibition of Sterol Synthesis): 1000 nM
inhibitory action on the synthesis of sterols (in words) [4]: strong inhibitory action
plasma cholesterol-lowering effect in mice (in words) (plasma cholesterol): no significant plasma cholesterol-lowering effect in mice
